Measured values taken from publication PMC12446476 (Nature Communications, 2025).
≈ marks a conversion by molar mass, not a printed value. Like-named read-outs stand apart in the source and are kept apart here.

Tested on: N. gonorrhoeae
Assay: MIC determination, agar dilution (CLSI)
Assay type: cell-based, Neisseria gonorrhoeae
Procedure, shortened: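 For N. gonorrhoeae, WHO 2024 reference strains served as quality control, only whole doubling-dilution MICs were reported, and isolates were classified by EUCAST v14.0 breakpoints or ECOFF. Time-kill assays followed CLSI in Columbia broth with 1% IsoVitaleX, and viable counts came from plating serial dilutions on GC agar with IsoVitaleX.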

[1] = Neisseria gonorrhoeae, 100 contemporary clinical N. gonorrhoeae isolates

Compound: Cc1c(CN(C)C(=O)/C=C/c2cnc3c(c2)N[C@H](C)[C@H](O)C(=O)N3)oc2ccccc12 [Debio 1453]
- MIC (Neisseria gonorrhoeae, clinical N. gonorrhoeae isolate 32, Sweden 2023, read-out: Minimum inhibitory concentration): 0.016 mg/L (≈ 0.0381 µM)
- MIC (Neisseria gonorrhoeae, clinical N. gonorrhoeae isolate 33, Sweden 2023, read-out: Minimum inhibitory concentration): 0.064 mg/L (≈ 0.152 µM)
- MIC (Neisseria gonorrhoeae, clinical N. gonorrhoeae isolate 34, Sweden 2023, read-out: Minimum inhibitory concentration): 0.064 mg/L (≈ 0.152 µM)
- MIC (Neisseria gonorrhoeae, clinical N. gonorrhoeae isolate 35, Sweden 2023, read-out: Minimum inhibitory concentration): 0.032 mg/L (≈ 0.0761 µM)
- MIC (Neisseria gonorrhoeae, clinical N. gonorrhoeae isolate 36, Sweden 2023, read-out: Minimum inhibitory concentration): 0.016 mg/L (≈ 0.0381 µM)
- MIC (Neisseria gonorrhoeae, clinical N. gonorrhoeae isolate 37, Sweden 2023, read-out: Minimum inhibitory concentration): 0.064 mg/L (≈ 0.152 µM)
- MIC (Neisseria gonorrhoeae, clinical N. gonorrhoeae isolate 38, Sweden 2023, read-out: Minimum inhibitory concentration): 0.064 mg/L (≈ 0.152 µM)
- MIC (Neisseria gonorrhoeae, clinical N. gonorrhoeae isolate 39, Sweden 2023, read-out: Minimum inhibitory concentration): 0.008 mg/L (≈ 0.019 µM)
- MIC (Neisseria gonorrhoeae, clinical N. gonorrhoeae isolate 40, Sweden 2023, read-out: Minimum inhibitory concentration): 0.064 mg/L (≈ 0.152 µM)
- MIC (Neisseria gonorrhoeae, clinical N. gonorrhoeae isolate 41, Sweden 2023, read-out: Minimum inhibitory concentration): 0.125 mg/L (≈ 0.297 µM)
- MIC (Neisseria gonorrhoeae, clinical N. gonorrhoeae isolate 42, Sweden 2023, read-out: Minimum inhibitory concentration): 0.032 mg/L (≈ 0.0761 µM)
- MIC (Neisseria gonorrhoeae, clinical N. gonorrhoeae isolate 43, Sweden 2023, read-out: Minimum inhibitory concentration): 0.064 mg/L (≈ 0.152 µM)
- MIC (Neisseria gonorrhoeae, clinical N. gonorrhoeae isolate 44, Sweden 2023, read-out: Minimum inhibitory concentration): 0.032 mg/L (≈ 0.0761 µM)
- MIC (Neisseria gonorrhoeae, clinical N. gonorrhoeae isolate 45, Sweden 2023, read-out: Minimum inhibitory concentration): 0.032 mg/L (≈ 0.0761 µM)
- MIC (Neisseria gonorrhoeae, clinical N. gonorrhoeae isolate 46, Sweden 2023, read-out: Minimum inhibitory concentration): 0.032 mg/L (≈ 0.0761 µM)
- MIC (Neisseria gonorrhoeae, clinical N. gonorrhoeae isolate 47, Sweden 2023, read-out: Minimum inhibitory concentration): 0.064 mg/L (≈ 0.152 µM)
- MIC (Neisseria gonorrhoeae, clinical N. gonorrhoeae isolate 48, Sweden 2023, read-out: Minimum inhibitory concentration): 0.016 mg/L (≈ 0.0381 µM)
- MIC (Neisseria gonorrhoeae, clinical N. gonorrhoeae isolate 49, Sweden 2023, read-out: Minimum inhibitory concentration): 0.032 mg/L (≈ 0.0761 µM)
- MIC (Neisseria gonorrhoeae, clinical N. gonorrhoeae isolate 50, Sweden 2023, read-out: Minimum inhibitory concentration): 0.064 mg/L (≈ 0.152 µM)
- MIC (Neisseria gonorrhoeae, clinical N. gonorrhoeae isolate 51, Sweden 2023, read-out: Minimum inhibitory concentration): 0.016 mg/L (≈ 0.0381 µM)
- MIC (Neisseria gonorrhoeae, clinical N. gonorrhoeae isolate 52, Sweden 2023, read-out: Minimum inhibitory concentration): 0.125 mg/L (≈ 0.297 µM)
- MIC (Neisseria gonorrhoeae, clinical N. gonorrhoeae isolate 53, Sweden 2023, read-out: Minimum inhibitory concentration): 0.064 mg/L (≈ 0.152 µM)
- MIC (Neisseria gonorrhoeae, clinical N. gonorrhoeae isolate 54, Sweden 2023, read-out: Minimum inhibitory concentration): 0.064 mg/L (≈ 0.152 µM)
- MIC (Neisseria gonorrhoeae, clinical N. gonorrhoeae isolate 55, Sweden 2023, read-out: Minimum inhibitory concentration): 0.064 mg/L (≈ 0.152 µM)
- MIC (Neisseria gonorrhoeae, clinical N. gonorrhoeae isolate 56, Sweden 2023, read-out: Minimum inhibitory concentration): 0.008 mg/L (≈ 0.019 µM)
- MIC (Neisseria gonorrhoeae, clinical N. gonorrhoeae isolate 57, Sweden 2023, read-out: Minimum inhibitory concentration): 0.032 mg/L (≈ 0.0761 µM)
- MIC (Neisseria gonorrhoeae, clinical N. gonorrhoeae isolate 58, Sweden 2023, read-out: Minimum inhibitory concentration): 0.064 mg/L (≈ 0.152 µM)
- MIC (Neisseria gonorrhoeae, clinical N. gonorrhoeae isolate 59, Sweden 2023, read-out: Minimum inhibitory concentration): 0.064 mg/L (≈ 0.152 µM)
- MIC (Neisseria gonorrhoeae, clinical N. gonorrhoeae isolate 60, Sweden 2023, read-out: Minimum inhibitory concentration): 0.064 mg/L (≈ 0.152 µM)
- MIC (Neisseria gonorrhoeae, clinical N. gonorrhoeae isolate 61, Sweden 2023, read-out: Minimum inhibitory concentration): 0.064 mg/L (≈ 0.152 µM)
- MIC (Neisseria gonorrhoeae, clinical N. gonorrhoeae isolate 62, Sweden 2023, read-out: Minimum inhibitory concentration): 0.016 mg/L (≈ 0.0381 µM)
- MIC (Neisseria gonorrhoeae, clinical N. gonorrhoeae isolate 63, Sweden 2023, read-out: Minimum inhibitory concentration): 0.032 mg/L (≈ 0.0761 µM)
- MIC (Neisseria gonorrhoeae, clinical N. gonorrhoeae isolate 64, Sweden 2023, read-out: Minimum inhibitory concentration): 0.008 mg/L (≈ 0.019 µM)
- MIC (Neisseria gonorrhoeae, clinical N. gonorrhoeae isolate 65, Sweden 2023, read-out: Minimum inhibitory concentration): 0.064 mg/L (≈ 0.152 µM)
- MIC (Neisseria gonorrhoeae, clinical N. gonorrhoeae isolate 66, Sweden 2023, read-out: Minimum inhibitory concentration): 0.032 mg/L (≈ 0.0761 µM)
- MIC (Neisseria gonorrhoeae, clinical N. gonorrhoeae isolate 67, Sweden 2023, read-out: Minimum inhibitory concentration): 0.032 mg/L (≈ 0.0761 µM)
- MIC (Neisseria gonorrhoeae, clinical N. gonorrhoeae isolate 68, Sweden 2023, read-out: Minimum inhibitory concentration): 0.064 mg/L (≈ 0.152 µM)
- MIC (Neisseria gonorrhoeae, clinical N. gonorrhoeae isolate 69, Sweden 2023, read-out: Minimum inhibitory concentration): 0.064 mg/L (≈ 0.152 µM)
- MIC (Neisseria gonorrhoeae, clinical N. gonorrhoeae isolate 70, Sweden 2023, read-out: Minimum inhibitory concentration): 0.064 mg/L (≈ 0.152 µM)
- MIC (Neisseria gonorrhoeae, clinical N. gonorrhoeae isolate 71, Sweden 2023, read-out: Minimum inhibitory concentration): 0.064 mg/L (≈ 0.152 µM)
- MIC (Neisseria gonorrhoeae, clinical N. gonorrhoeae isolate 72, Sweden 2023, read-out: Minimum inhibitory concentration): 0.064 mg/L (≈ 0.152 µM)
- MIC (Neisseria gonorrhoeae, clinical N. gonorrhoeae isolate 73, Sweden 2023, read-out: Minimum inhibitory concentration): 0.032 mg/L (≈ 0.0761 µM)
- MIC (Neisseria gonorrhoeae, clinical N. gonorrhoeae isolate 74, Sweden 2023, read-out: Minimum inhibitory concentration): 0.064 mg/L (≈ 0.152 µM)
- MIC (Neisseria gonorrhoeae, clinical N. gonorrhoeae isolate 75, Sweden 2023, read-out: Minimum inhibitory concentration): 0.008 mg/L (≈ 0.019 µM)
- MIC (Neisseria gonorrhoeae, clinical N. gonorrhoeae isolate 76, Sweden 2023, read-out: Minimum inhibitory concentration): 0.064 mg/L (≈ 0.152 µM)
- MIC (Neisseria gonorrhoeae, clinical N. gonorrhoeae isolate 77, Sweden 2023, read-out: Minimum inhibitory concentration): 0.064 mg/L (≈ 0.152 µM)
- MIC (Neisseria gonorrhoeae, clinical N. gonorrhoeae isolate 78, Sweden 2023, read-out: Minimum inhibitory concentration): 0.032 mg/L (≈ 0.0761 µM)
- MIC (Neisseria gonorrhoeae, clinical N. gonorrhoeae isolate 79, Sweden 2023, read-out: Minimum inhibitory concentration): 0.032 mg/L (≈ 0.0761 µM)
- MIC (Neisseria gonorrhoeae, clinical N. gonorrhoeae isolate 80, Sweden 2023, read-out: Minimum inhibitory concentration): 0.032 mg/L (≈ 0.0761 µM)
- MIC (Neisseria gonorrhoeae, clinical N. gonorrhoeae isolate 81, Sweden 2023, read-out: Minimum inhibitory concentration): 0.064 mg/L (≈ 0.152 µM)
- MIC (Neisseria gonorrhoeae, clinical N. gonorrhoeae isolate 82, Sweden 2023, read-out: Minimum inhibitory concentration): 0.032 mg/L (≈ 0.0761 µM)
- MIC (Neisseria gonorrhoeae, clinical N. gonorrhoeae isolate 83, Sweden 2023, read-out: Minimum inhibitory concentration): 0.064 mg/L (≈ 0.152 µM)
- MIC (Neisseria gonorrhoeae, clinical N. gonorrhoeae isolate 84, Sweden 2023, read-out: Minimum inhibitory concentration): 0.064 mg/L (≈ 0.152 µM)
- MIC (Neisseria gonorrhoeae, clinical N. gonorrhoeae isolate 85, Sweden 2023, read-out: Minimum inhibitory concentration): 0.008 mg/L (≈ 0.019 µM)
- MIC (Neisseria gonorrhoeae, clinical N. gonorrhoeae isolate 86, Sweden 2023, read-out: Minimum inhibitory concentration): 0.032 mg/L (≈ 0.0761 µM)
- MIC (Neisseria gonorrhoeae, clinical N. gonorrhoeae isolate 87, Sweden 2023, read-out: Minimum inhibitory concentration): 0.016 mg/L (≈ 0.0381 µM)
- MIC (Neisseria gonorrhoeae, clinical N. gonorrhoeae isolate 88, Sweden 2023, read-out: Minimum inhibitory concentration): 0.064 mg/L (≈ 0.152 µM)
- MIC (Neisseria gonorrhoeae, clinical N. gonorrhoeae isolate 89, Sweden 2023, read-out: Minimum inhibitory concentration): 0.032 mg/L (≈ 0.0761 µM)
- MIC (Neisseria gonorrhoeae, clinical N. gonorrhoeae isolate 90, Sweden 2023, read-out: Minimum inhibitory concentration): 0.125 mg/L (≈ 0.297 µM)
- MIC (Neisseria gonorrhoeae, clinical N. gonorrhoeae isolate 91, Sweden 2023, read-out: Minimum inhibitory concentration): 0.032 mg/L (≈ 0.0761 µM)
- MIC (Neisseria gonorrhoeae, clinical N. gonorrhoeae isolate 92, Sweden 2023, read-out: Minimum inhibitory concentration): 0.016 mg/L (≈ 0.0381 µM)
- MIC (Neisseria gonorrhoeae, clinical N. gonorrhoeae isolate 93, Sweden 2023, read-out: Minimum inhibitory concentration): 0.125 mg/L (≈ 0.297 µM)
- MIC (Neisseria gonorrhoeae, clinical N. gonorrhoeae isolate 94, Sweden 2023, read-out: Minimum inhibitory concentration): 0.064 mg/L (≈ 0.152 µM)
- MIC (Neisseria gonorrhoeae, clinical N. gonorrhoeae isolate 95, Sweden 2023, read-out: Minimum inhibitory concentration): 0.064 mg/L (≈ 0.152 µM)
- MIC (Neisseria gonorrhoeae, clinical N. gonorrhoeae isolate 96, Sweden 2023, read-out: Minimum inhibitory concentration): 0.032 mg/L (≈ 0.0761 µM)
- MIC (Neisseria gonorrhoeae, clinical N. gonorrhoeae isolate 97, Sweden 2023, read-out: Minimum inhibitory concentration): 0.064 mg/L (≈ 0.152 µM)
- MIC (Neisseria gonorrhoeae, clinical N. gonorrhoeae isolate 98, Sweden 2023, read-out: Minimum inhibitory concentration): 0.064 mg/L (≈ 0.152 µM)
- MIC (Neisseria gonorrhoeae, clinical N. gonorrhoeae isolate 99, Sweden 2023, read-out: Minimum inhibitory concentration): 0.008 mg/L (≈ 0.019 µM)
- MIC (Neisseria gonorrhoeae, clinical N. gonorrhoeae isolate 100, Sweden 2023, read-out: Minimum inhibitory concentration): 0.008 mg/L (≈ 0.019 µM)
- MIC (Neisseria gonorrhoeae, read-out: MIC relevant for mutant selection assay, WHO Z): 0.125 mg/L (≈ 0.297 µM)
- MIC (Neisseria gonorrhoeae, screening panel N. gonorrhoeae isolate A, read-out: Minimum inhibitory concentration): 0.06 mg/L (≈ 0.143 µM)
- MIC (Neisseria gonorrhoeae, screening panel N. gonorrhoeae isolate B, read-out: Minimum inhibitory concentration): 0.03 mg/L (≈ 0.0713 µM)
- MIC (Neisseria gonorrhoeae, screening panel N. gonorrhoeae isolate C, read-out: Minimum inhibitory concentration): 0.03 mg/L (≈ 0.0713 µM)
- MIC (Neisseria gonorrhoeae, screening panel N. gonorrhoeae isolate D, read-out: Minimum inhibitory concentration): 0.03 mg/L (≈ 0.0713 µM)
- MIC (Neisseria gonorrhoeae, screening panel N. gonorrhoeae isolate E, read-out: Minimum inhibitory concentration): 0.03 mg/L (≈ 0.0713 µM)
- MIC (Neisseria gonorrhoeae, screening panel N. gonorrhoeae isolate F, read-out: Minimum inhibitory concentration): 0.125 mg/L (≈ 0.297 µM)
- MIC (Neisseria gonorrhoeae, screening panel N. gonorrhoeae isolate G, read-out: Minimum inhibitory concentration): 0.125 mg/L (≈ 0.297 µM)
- MIC (Neisseria gonorrhoeae, screening panel N. gonorrhoeae isolate H, read-out: Minimum inhibitory concentration): 0.06 mg/L (≈ 0.143 µM)
- MIC (Neisseria gonorrhoeae, screening panel N. gonorrhoeae isolate I, read-out: Minimum inhibitory concentration): 0.03 mg/L (≈ 0.0713 µM)
- MIC (Neisseria gonorrhoeae, screening panel N. gonorrhoeae isolate J, read-out: Minimum inhibitory concentration): 0.06 mg/L (≈ 0.143 µM)
- MIC (Neisseria gonorrhoeae, screening panel N. gonorrhoeae isolate K, read-out: Minimum inhibitory concentration): 0.125 mg/L (≈ 0.297 µM)
- MIC (Neisseria gonorrhoeae, screening panel N. gonorrhoeae isolate L, read-out: Minimum inhibitory concentration): 0.06 mg/L (≈ 0.143 µM)
- MIC (Neisseria gonorrhoeae, screening panel N. gonorrhoeae isolate M, read-out: Minimum inhibitory concentration): 0.03 mg/L (≈ 0.0713 µM)
- MIC (Neisseria gonorrhoeae, screening panel N. gonorrhoeae isolate N, read-out: Minimum inhibitory concentration): 0.03 mg/L (≈ 0.0713 µM)
- MIC (Neisseria gonorrhoeae, two clones of strain 6804 with FabI L257F): 0.25 mg/L (≈ 0.595 µM)
- MIC50 [1]: 0.06 mg/L (≈ 0.143 µM)
- MIC90 [1]: 0.06 mg/L (≈ 0.143 µM)
- NgMIC50 (screening panel of 14 N. gonorrhoeae isolates): 0.03 µg/mL
